Assay results as given in patent publication US8552135B2, “Substituted polyalkoxysiloxane compositions and methods of use” (One Unlimited, Inc., priority 2006, dated 2013).

Tested on: Pseudomonas aeruginosa
Assay: burn wound infection treated with Nu-3 applied with glycerol polysiloxanes
Type: in vivo
Settings: burn wound infections
Source text: A particularly important medical treatment application is the healing effect of some of the hydrophilic substituted polydialkoxysiloxanes on radiation burn injuries. Skin irritation and burning is common in cases where patients undergo radiation treatment associated with certain cancers. Topical application of glycerol substituted polydialkoxysilane compositions relieves pain and accelerates healing compared to treatment with commonly used burn or cortisone ointments. […] Nubiotics are a new class of antibiotic agents with broad spectrum activity.

CCCCOP(=O)(O)OC[C@H]1O[C@@H](n2cc(C)c(=O)[nH]c2=O)C[C@@H]1OP(=O)(O)O [Nu-3, butyl-phosphate-5′-thymidine-3′-phosphate]
antibacterial effectiveness of Nu-3 when applied with glycerol polysiloxanes: only a slight decrease in antibacterial effectiveness
